Data as given in PubChem BioAssay (NCI).
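How tested: cells in 96-well plates exposed to compound for 48 hours at five concentrations. TGI denotes the concentration required for complete inhibition of growth.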

How the values were obtained:
Test in all cases: NCI-60 cell line screen, 48 h
SN12C renal = system: SN12C renal
ACHN renal = system: ACHN renal
NCI/ADR-RES ovarian = system: NCI/ADR-RES ovarian
LOX IMVI melanoma = system: LOX IMVI melanoma
MDA-MB-231 breast = system: MDA-MB-231 breast
U251 CNS = system: U251 CNS
HOP-62 NSCLC = system: HOP-62 NSCLC
SK-MEL-28 melanoma = system: SK-MEL-28 melanoma
786-0 renal = system: 786-0 renal
SNB-75 CNS = system: SNB-75 CNS
KM12 colon = system: KM12 colon
CCRF-CEM leukemia = system: CCRF-CEM leukemia
OVCAR-4 ovarian = system: OVCAR-4 ovarian
SK-OV-3 ovarian = system: SK-OV-3 ovarian
OVCAR-5 ovarian = system: OVCAR-5 ovarian
EKVX NSCLC = system: EKVX NSCLC
RXF 393 renal = system: RXF 393 renal
HS 578T breast = system: HS 578T breast
HL-60(TB) leukemia = system: HL-60(TB) leukemia
COLO 205 colon = system: COLO 205 colon

| SMILES | TGI (SN12C renal) [µM] | TGI (ACHN renal) [µM] | TGI (NCI/ADR-RES ovarian) [µM] | TGI (LOX IMVI melanoma) [µM] | TGI (MDA-MB-231 breast) [µM] | TGI (U251 CNS) [µM] | TGI (HOP-62 NSCLC) [µM] | TGI (SK-MEL-28 melanoma) [µM] | TGI (786-0 renal) [µM] | TGI (SNB-75 CNS) [µM] | TGI (KM12 colon) [µM] | TGI (CCRF-CEM leukemia) [µM] | TGI (OVCAR-4 ovarian) [µM] | TGI (SK-OV-3 ovarian) [µM] | TGI (OVCAR-5 ovarian) [µM] | TGI (EKVX NSCLC) [µM] | TGI (RXF 393 renal) [µM] | TGI (HS 578T breast) [µM] | TGI (HL-60(TB) leukemia) [µM] | TGI (COLO 205 colon) [µM] |
| --- | --- | --- | --- | --- | --- | --- | --- | --- | --- | --- | --- | --- | --- | --- | --- | --- | --- | --- | --- | --- |
| CC(=O)O[C@H]1C(=O)[C@@]2(C)[C@H]([C@H](OC(=O)c3ccoc3)[C@]3(O)C[C@H](OC(=O)[C@H](O)[C@@H](NC(=O)c4ccccc4)c4ccccc4)C(C)=C1C3(C)C)[C@]1(OC(C)=O)CO[C@@H]1C[C@@H]2O | > 12.5 | > 12.5 | > 12.5 | > 12.5 | > 12.5 | > 12.5 | > 12.5 | > 12.5 | > 12.5 | 2.38 | > 12.5 | > 2.88 | > 12.5 | > 3.15 | > 12.5 | > 12.5 | > 11.8 | 0.612 |  |  |
| C[C@@H](c1ccccc1)n1c(N)c(C#N)c2ccc([N+](=O)[O-])cc2c1=O | 28.4 | 29.5 | 22.5 | 34.9 | 37 | 59.1 |  | 39.5 | 31.3 | 46.2 | 42.8 | 33 | 35.7 |  |  |  |  | 69.4 | 27.7 | 30.8 |
| COc1cc(Br)cc2cc(-c3cn4c(n3)sc3ccccc34)c(=O)oc12 | > 75 | > 75 | > 75 | 56.4 | 72.5 | 72.1 | > 75 |  | > 75 |  | > 75 | > 75 | > 75 | > 75 | > 75 | 52.1 |  | 39.9 | 36.2 | > 75 |
| N#CCCC(CCC#N)(CCC#N)NO | > 100 | > 100 | > 100 |  | > 100 | > 100 |  |  | > 100 | > 100 | > 100 |  |  | > 100 | > 100 | > 100 | > 100 | > 100 | > 100 | > 100 |
| Nc1nc(-c2ccccc2)cc(-c2ccc(OCc3ccccc3)cc2O)n1 | > 100 | > 100 | > 100 | > 100 | > 100 | > 100 | > 100 | > 100 | > 100 | > 100 | > 100 | > 100 | > 100 |  | > 100 | > 100 | 76.8 | > 100 |  | > 100 |
| CCCc1c(O)nc(Nc2nc3ccccc3[nH]2)[nH]c1=O | > 100 | > 100 | > 100 |  | > 100 | > 100 |  |  | > 100 | > 100 | > 100 | > 100 | > 100 | > 100 | > 100 | > 100 | > 100 | > 100 | > 100 | > 100 |
| CCOC(=O)c1cn2c(n1)sc1cc(Cl)ccc12 | > 100 | > 100 | > 100 | > 100 | > 100 | 60.7 | 61.6 | > 100 | 26.4 | > 100 | > 100 | > 100 | > 100 | > 100 | > 100 | > 100 | > 100 | > 100 |  | 60.8 |
| Cn1c([C@H](C#N)c2ncccc2[N+](=O)[O-])nc2ccccc21 |  | > 100 | > 100 | > 100 | > 100 | > 100 | 67.6 | > 100 | > 100 | 67.1 | > 100 | > 100 |  | > 100 | > 100 | > 100 | 97.7 | 75.1 | > 100 |  |
| COC(=O)c1cc2c(cc1Cl)Sc1nnc(Nc3ccc(C)cc3)n1S2(=O)=O | 36.5 | 8.8 | 25.7 |  | 27.2 | 17 | 23.5 | 21.8 | 24.1 |  | 20.3 | 36.1 | 10.7 | 24.1 | 39.8 | 27.7 | 13.2 | 32.7 | 13.8 | 17.9 |
| O=C(c1ccco1)N(C(=S)OCCOc1ccccc1)c1ccccc1 | 39.1 | 53.4 | 58.6 | 34.5 | 30.6 | 30.2 | 32.1 | 40.3 | 38.3 |  | 46.2 | 46.5 | 57.3 | 55.3 | 41.1 | 52.4 | 28.2 | > 100 | 47.3 | 37.5 |
| N#C[C@@H](c1ccccn1)c1ncccc1[N+](=O)[O-] | > 100 | > 100 | > 100 | > 100 | > 100 | > 100 | > 100 | > 100 | > 100 | > 100 |  | > 100 | > 100 | > 100 | > 100 | > 100 | > 100 | > 100 |  | > 100 |
| COC(=O)C1=CS/C(=C2\S[C@@H]3[C@H](S2)[C@H]2C=C[C@@H]3C2)S1 | > 100 |  | 47.8 | > 100 | > 100 | > 100 | > 100 | > 100 | > 100 | > 100 | > 100 | > 100 | > 100 | > 100 |  |  | > 100 | > 100 | 57.9 | > 100 |
| CC(=O)Oc1ccc2cc(-c3ccccc3OC(C)=O)c(=O)oc2c1 | > 100 | > 100 | > 100 | > 100 | > 100 | > 100 | > 100 | > 100 | > 100 | 34.4 | > 100 | 60.6 | > 100 |  | > 100 | > 100 |  | > 100 | 24.4 | > 100 |
